For 33 compounds, GI50 results are on record in patent US11987575B2, “Tricyclic compounds as BCR-ABL inhibitors” (ASCENTAGE PHARMA (SUZHOU) CO., LTD., priority 2019, dated 2024).

In assay [1] the target is BaF3 (T315I mutant) (Homo sapiens, UniProt P00519, T315I, cells depend on it). Briefly: WST (CCK-8) anti-proliferative assay, BaF3 T315I mutant. The conditions noted are these: read-out: BaF3 (T315I mutant), 72 h treatment, CCK-8 readout OD 450 nm.
Method: (§1) The anti-proliferative effect of representative compounds of the present disclosure was determined by a water-soluble tetrazolium (WST)-based assay using Cell Counting Kit-8 (CCK-8). Cells were seeded in 96-well plates and treated with different concentrations of test articles for 72 h. Each treatment was tested in triplicate. Briefly, a series of 9 concentrations were chosen for each test article and added at 100 μl/well into a 96-well plate. Each concentration was tested in triplicate. 100 μl of diluent was added into 3-6 wells in the same plate for cell control group, and another set of 3-6 wells was used as a blank control.
(§2) In each well, 100 μl of cell suspension (containing optimal cell numbers, which creates approximately 100% confluence of cells in control wells based on by the absorbance (OD) value) was dispensed into the same 96-well plate except for the blank well. The plate was then cultured at 37° C. in an incubator in an atmosphere with 5% CO2 for 72 h. At the end of the treatments, 20 μl/well of CCK-8 reagent was directly added to each well. The plate was then incubated at 37° C. in an incubator in an atmosphere with 5% CO2 for 2-4 hours.
(§3) The cells viability was calculated using the mean OD value of triplicated wells following the equation below: (OD sample−OD blank)/(OD cell control−OD blank)×100 IC50 values were calculated with Graphpad Prism 6.0 software using nonlinear regression (curve fitting) type data analysis.
In assay [2] the target is BaF3(WT) (Homo sapiens, UniProt P00519). Briefly: WST (CCK-8) anti-proliferative assay, BaF3 WT. The conditions noted are these: read-out: BaF3(WT); BaF3 WT cells, 72 h treatment, CCK-8 readout OD 450 nm.
Method: as §1, §2, §3

For the compound `CC(=O)NC1CCC2c3cc(C(=O)Nc4ccc(OC(F)(F)Cl)cc4)cc(-c4ccn[nH]4)c3N(C3CC3)C12` (stereo not drawn) [Compound 62], the results for the GI50 in assay [1] and in assay [2] were 41 nM and 21 nM, respectively.
For the compound `CC(C)N1c2c(-c3ccn[nH]3)cc(C(=O)Nc3ccc(OC(F)(F)Cl)cc3)cc2C2CCC(NS(=O)(=O)N(C)C)C21` (stereo not drawn) [Compound 12], the figures for the GI50 in assay [1] and in assay [2] were 216 nM and 10 nM, respectively.
For `CC(C)N1c2c(-c3ccn[nH]3)cc(C(=O)Nc3ccc(OC(F)(F)Cl)cc3)cc2C2CCC(NC(=O)c3cocn3)C21` (stereo not drawn) [Compound 30], the GI50 in assay [1] is 64 nM; in assay [2], 16 nM.
Consider `CC(=O)N(C)C1CCC2c3cc(C(=O)Nc4ccc(OC(F)(F)Cl)cc4)cc(-c4ccn[nH]4)c3N(C(C)C)C21` (stereo not drawn) [Compound 44, N-(4-(chlorodifluoromethoxy)phenyl)-4-isopropyl-3-(N-methylacetamido)-5-(1H-pyrazol-5-yl)-1,2,3,3a,4,8b-hexahydrocyclopenta[b]indole-7-carboxamide], for which the GI50 turned out to be 122 nM in assay [1] and 36 nM in assay [2].
Regarding `CC(C)N1c2c(-c3ccn[nH]3)cc(C(=O)Nc3ccc(OC(F)(F)Cl)cc3)cc2C2CCC(NC(=O)C3CCOCC3)C21` (stereo not drawn) [Compound 31], the GI50 in assay [1] is 40 nM; in assay [2], 15 nM.
For the compound `CC(=O)NC1CCC2c3cc(C(=O)Nc4ccc(OC(F)(F)Cl)cc4)cc(-c4ccncc4)c3N(C(C)C)C12` (stereo not drawn) [Compound 21], the GI50 in assay [1] came out at 176 nM; in assay [2] it was 27 nM.
Regarding `CC(=O)N[C@@H]1CC[C@H]2c3cc(C(=O)Nc4ccc(OC(F)(F)Cl)cc4)cc(-c4ccc(C)nc4)c3N(CC(C)(C)C)[C@@H]12` [Compound 60-A], the GI50 is 92 nM in assay [1] and 13 nM in assay [2].
With `CC(C)N1c2c(-c3ccn[nH]3)cc(C(=O)Nc3ccc(OC(F)(F)Cl)cc3)cc2C2CCC(NC(=O)C3CCN(C)CC3)C21` (stereo not drawn) [Compound 32], the GI50 in assay [1] was 2110 nM; in assay [2], 491 nM.
`CC(C)N1c2c(-c3ccn[nH]3)cc(C(=O)Nc3ccc(OC(F)(F)Cl)cc3)cc2C2CCC(NS(C)(=O)=O)C21` (stereo not drawn) [Compound 6]: the GI50 amounted to 154 nM in assay [1] and 67 nM in assay [2].
In the case of `CC(C)N1c2c(-c3ccn[nH]3)cc(C(=O)Nc3ccc(OC(F)(F)Cl)cc3)cc2C2CCC(N3CCCCC3=O)C21` (stereo not drawn) [Compound 36, N-(4-(chlorodifluoromethoxy)phenyl)-4-isopropyl-3-(2-oxopiperidin-1-yl)-5-(1H-pyrazol-5-yl)-1,2,3,3a,4,8b-hexahydrocyclopenta[b]indole-7-carboxamide], the GI50 in assay [1] is 84 nM; in assay [2], 9 nM.
On to `CC(=O)NC1CCC2c3cc(C(=O)Nc4ccc(OC(F)(F)Cl)cc4)cc(-c4ccn[nH]4)c3N(CC(C)C)C12` (stereo not drawn) [Compound 23], for which the GI50 in assay [1] was found to be 81 nM; in assay [2], 10 nM.
For `CNS(=O)(=O)NC1CCC2c3cc(C(=O)Nc4ccc(OC(F)(F)Cl)cc4)cc(-c4ccn[nH]4)c3N(C(C)C)C12` (stereo not drawn) [Compound 5], in that order: 144 nM and 34 nM.
For `CC(=O)N[C@@H]1CC[C@H]2c3cc(C(=O)Nc4ccc(OC(F)(F)Cl)cc4)cc(-c4ccn[nH]4)c3N(C(C)C)[C@@H]12` [Compound 4-A, (3R,3aR,8bS)-3-acetamido-N-(4-(chlorodifluoromethoxy)phenyl)-4-isopropyl-5-(1H-pyrazol-5-yl)-1,2,3,3a,4,8b-hexahydrocyclopenta[b]indole-7-carboxamide], the GI50 in assay [1] was 35 nM; in assay [2], 3 nM.
Consider `CC(C)NS(=O)(=O)NC1CCC2c3cc(C(=O)Nc4ccc(OC(F)(F)Cl)cc4)cc(-c4ccn[nH]4)c3N(C(C)C)C12` (stereo not drawn) [Compound 19], for which the GI50 was 97 nM in assay [1] and 6 nM in assay [2].
Turning to `CCOC(=O)NC1CCC2c3cc(C(=O)Nc4ccc(OC(F)(F)Cl)cc4)cc(-c4ccn[nH]4)c3N(C(C)C)C12` (stereo not drawn) [Compound 28], the GI50 in assay [1] worked out at 168 nM; in assay [2], 19 nM.
For `CC(C)N1c2c(-c3ccn[nH]3)cc(C(=O)Nc3ccc(OC(F)(F)Cl)cc3)cc2C2CC(O)C(O)C21` (stereo not drawn) [Compound 3, N-(4-(chlorodifluoromethoxy)phenyl)-2,3-dihydroxy-4-isopropyl-5-(1H-pyrazol-5-yl)-1,2,3,3a,4,8b-hexahydrocyclopenta[b]indole-7-carboxamide], in that order: 177 nM and 36 nM.
With `CC(=O)N[C@@H]1CC[C@H]2c3cc(C(=O)Nc4ccc(OC(F)(F)Cl)cc4)cc(-c4cncc(Cl)c4)c3N(C(C)C)[C@@H]12` [Compound 52-A], the GI50 in assay [1] came out at 47 nM; in assay [2] it was 3 nM.
Regarding `CC(C)N1c2c(-c3ccn[nH]3)cc(C(=O)Nc3ccc(OC(F)(F)Cl)cc3)cc2C2CCC(NS(=O)(=O)N3CCOCC3)C21` (stereo not drawn) [Compound 13], the GI50 in assay [1] was found to be 122 nM; in assay [2], 12 nM.
For the compound `CC(C)N1c2c(-c3ccn[nH]3)cc(C(=O)Nc3ccc(OC(F)(F)Cl)cc3)cc2C2CCC(NS(=O)(=O)C3CC3)C21` (stereo not drawn) [Compound 24], the GI50 in assay [1] was 114 nM; in assay [2], 17 nM.
Take `CC(C)N1c2c(-c3ccn[nH]3)cc(C(=O)Nc3ccc(OC(F)(F)Cl)cc3)cc2C2CCC(NS(=O)(=O)N3CCCCC3)C21` (stereo not drawn) [Compound 16]: the GI50 in assay [1] is 252 nM; in assay [2], 12 nM.
For `CC(=O)NC1CCC2c3cc(C(=O)Nc4ccc(OC(F)(F)Cl)cc4)cc(-c4ccn[nH]4)c3N(CC(C)(C)C)C12` (stereo not drawn) [Compound 22], the GI50 in assay [1] was 21 nM; in assay [2], 3 nM.
In the case of `CC(=O)N[C@@H]1CC[C@H]2c3cc(C(=O)Nc4ccc(OC(F)(F)Cl)cc4)cc(-c4cncc(C#N)c4)c3N(C(C)C)[C@@H]12` [Compound 53-A], the GI50 in assay [1] was 16 nM; in assay [2] it was 3 nM.
For the compound `CC(C)N1c2c(-c3ccn[nH]3)cc(C(=O)Nc3ccc(OC(F)(F)Cl)cc3)cc2C2CCC(Nc3cnccn3)C21` (stereo not drawn) [Compound 34, N-(4-(chlorodifluoromethoxy)phenyl)-4-isopropyl-3-(pyrazin-2-ylamino)-5-(1H-pyrazol-5-yl)-1,2,3,3a,4,8b-hexahydrocyclopenta[b]indole-7-carboxamide], the GI50 in assay [1] stood at 411 nM; in assay [2], 17 nM.
Regarding `CC(=O)NC1CCC2c3cc(C(=O)Nc4ccc(OC(F)(F)Cl)cc4)cc(-c4ccn[nH]4)c3N(C(C)C)C12` (stereo not drawn) [Compound 4, 3-acetamido-N-(4-(chlorodifluoromethoxy)phenyl)-4-isopropyl-5-(1H-pyrazol-5-yl)-1,2,3,3a,4,8b-hexahydrocyclopenta[b]indole-7-carboxamide], the GI50 in assay [1] is 71 nM; in assay [2] it was 14 nM.
On to `CC(=O)N[C@@H]1CC[C@H]2c3cc(C(=O)Nc4ccc(OC(F)(F)Cl)cc4)cc(-c4cccc(C#N)c4)c3N(C(C)C)[C@@H]12` [Compound 66-A], for which the GI50 in assay [1] is 29 nM; in assay [2], 3 nM.
As to `CC(C)N1c2c(-c3ccn[nH]3)cc(C(=O)Nc3ccc(OC(F)(F)Cl)cc3)cc2C2CCC(N3CCCS3(=O)=O)C21` (stereo not drawn) [Compound 37, N-(4-(chlorodifluoromethoxy)phenyl)-3-(1,1-dioxidoisothiazolidin-2-yl)-4-isopropyl-5-(1H-pyrazol-5-yl)-1,2,3,3a,4,8b-hexahydrocyclopenta[b]indole-7-carboxamide], the GI50 in assay [1] amounted to 245 nM; in assay [2] it was 25 nM.
For `CC(C)N1c2c(-c3ccn[nH]3)cc(C(=O)Nc3ccc(OC(F)(F)Cl)cc3)cc2C2CCC(NC(=O)CCC(=O)O)C21` (stereo not drawn) [Compound 39, 4-((7-((4-(chlorodifluoromethoxy)phenyl)carbamoyl)-4-isopropyl-5-(1H-pyrazol-5-yl)-1,2,3,3a,4,8b-hexahydrocyclopenta[b]indol-3-yl)amino)-4-oxobutanoic acid], in that order: 5710 nM and 2760 nM.
For the compound `CC(=O)N[C@@H]1CC[C@H]2c3cc(C(=O)Nc4ccc(OC(F)(F)Cl)cc4)cc(-c4cc(F)cnc4C#N)c3N(C(C)C)[C@@H]12` [Compound 67-A], the GI50 is 59 nM in assay [1] and 6 nM in assay [2].
Taken in the same sequence, the figures for `CC(=O)N[C@H]1CC[C@@H]2c3cc(C(=O)Nc4ccc(OC(F)(F)Cl)cc4)cc(-c4cccnc4)c3N(C(C)C)[C@H]12` [Compound 26-B, (3S,3aS,8bR)-3-acetamido-N-(4-(chlorodifluoromethoxy)phenyl)-4-isopropyl-5-(pyridin-3-yl)-1,2,3,3a,4,8b-hexahydrocyclopenta[b]indole-7-carboxamide] were 956 nM and 186 nM.
Turning to `CC(=O)N[C@@H]1CC[C@H]2c3cc(C(=O)Nc4ccc(OC(F)(F)Cl)cc4)cc(-c4ccc(C#N)nc4)c3N(C(C)C)[C@@H]12` [Compound 47-A], the GI50 in assay [1] stood at 13 nM; in assay [2], 5 nM.
Turning to `CC(C)N1c2c(-c3ccn[nH]3)cc(C(=O)Nc3ccc(OC(F)(F)Cl)cc3)cc2C2CCC(NS(=O)(=O)N3CCN(C)CC3)C21` (stereo not drawn) [Compound 15], the results for the GI50 in assay [1] and in assay [2] were 346 nM and 35 nM, respectively.
Regarding `CC(=O)N[C@@H]1CC[C@H]2c3cc(C(=O)Nc4ccc(OC(F)(F)Cl)cc4)cc(-c4cccnc4)c3N(C(C)C)[C@@H]12` [Compound 26-A, (3R,3aR,8bS)-3-acetamido-N-(4-(chlorodifluoromethoxy)phenyl)-4-isopropyl-5-(pyridin-3-yl)-1,2,3,3a,4,8b-hexahydrocyclopenta[b]indole-7-carboxamide], the GI50 was determined as 41 nM in assay [1] and 6 nM in assay [2].
Taken in the same sequence, the figures for `COc1cncc(-c2cc(C(=O)Nc3ccc(OC(F)(F)Cl)cc3)cc3c2N(C(C)C)[C@H]2[C@H](NC(C)=O)CC[C@@H]32)c1` [Compound 51-A] were 116 nM and 12 nM.
